Experiments:
[1] = system: Beet Armyworm (BAW) (Spodoptera exigua); assay: Bioassays on Beet Armyworm (BAW), 128-well diet tray assay; assay type: in vivo; conditions: 168 h, 50 μg/cm^2 test compound on artificial diet, second instar larvae, 25° C., five to seven days, average of eight wells, read-out: BAW Rating (% mortality)
Protocol: (§1) Certain molecules disclosed in this document were tested against BAW and CEW using procedures described in the following examples. In the reporting of the results, the “BAW & CEW Rating Table” was used (See Table Section).
Bioassays on BAW (Spodoptera exigua)
Bioassays on BAW were conducted using a 128-well diet tray assay. one to five second instar BAW larvae were placed in each well (3 mL) of the diet tray that had been previously filled with 1 mL of artificial diet to which 50 μg/cm^2 of the test compound (dissolved in 50 μL of 90:10 acetone-water mixture) had been applied (to each of eight wells) and then allowed to dry. Trays were covered with a clear self-adhesive cover, and held at 25° C., 14:10 light-dark for five to seven days. Percent mortality was recorded for the larvae in each well; activity in the eight wells was then averaged. The results are indicated in the table entitled “Table 3: Assay Results” (See Table Section).

[2] = system: Corn Earworm (CEW) (Helicoverpa zea); assay: Bioassays on Corn Earworm (CEW), 128-well diet tray assay; assay type: in vivo; conditions: 168 h, 50 μg/cm^2 test compound on artificial diet, second instar larvae, 25° C., five to seven days, average of eight wells, read-out: CEW Rating (% mortality)
Protocol: as §1
Bioassays on CEW (Helicoverpa zea)
Bioassays on CEW were conducted using a 128-well diet tray assay. one to five second instar CEW larvae were placed in each well (3 mL) of the diet tray that had been previously filled with 1 mL of artificial diet to which 50 μg/cm^2 of the test compound (dissolved in 50 μL of 90:10 acetone-water mixture) had been applied (to each of eight wells) and then allowed to dry. Trays were covered with a clear self-adhesive cover, and held at 25° C., 14:10 light-dark for five to seven days. Percent mortality was recorded for the larvae in each well; activity in the eight wells was then averaged. The results are indicated in the table entitled “Table 3: Assay Results” (See Table Section).

SMILES | mortality at 50 µg/cm2 [1] [%] | mortality at 50 µg/cm2 [2] [%]
COC(/C=C/c1ccc(-n2cncn2)cc1)(c1cc(Cl)cc(Cl)c1)C(F)(F)F (stereo not shown) [DC70, (E)-1-(4-(3-(3,5-dichlorophenyl)-4,4,4-trifluoro-3-methoxybut-1-en-1-yl)phenyl)-1H-1,2,4-triazole] | 50 to 100 | 50 to 100
O=C(CC(F)(F)F)NCc1ccc(/C=C/C(c2cc(Cl)cc(Cl)c2)C(F)(F)F)cc1 (stereo not shown) [CC3] | 50 to 100 | 50 to 100
CS(=O)(=O)c1ncnn1-c1ccc(/C=C/C(c2cc(Cl)cc(Cl)c2)C(F)(F)F)cc1 (stereo not shown) [DC27] | 0 | 0
CSCCC(=O)NCc1ccc(/C=C/C(c2cc(Cl)c(Cl)c(Cl)c2)C(F)(F)F)cc1Cl (stereo not shown) [CC19] | 50 to 100 | 50 to 100
Cc1cc(/C=C/C(c2cc(Cl)c(F)c(Cl)c2)C(F)(F)F)ccc1C(=O)NC1CCOCC1 (stereo not shown) [AC52] | 50 to 100 | 50 to 100
CN1CCC(NC(=O)c2ccc(/C=C/C(c3cc(Cl)c(Cl)c(Cl)c3)C(F)(F)F)cc2Br)CC1 (stereo not shown) [AC106, (E)-2-bromo-N-(1-methylpiperidin-4-yl)-4-(4,4,4-trifluoro-3-(3,4,5-trichlorophenyl)but-1-en-1-yl)benzamide] | 50 to 100 | 50 to 100
O=C(c1ncnn1-c1ccc(/C=C/C(c2cc(Cl)cc(Cl)c2)C(F)(F)F)cc1)C1CC1 (stereo not shown) [DC26] | 0 | 0
Cc1cc(/C=C/C(c2cc(Cl)cc(Cl)c2)C(F)(F)F)cc(C#N)c1-n1cncn1 (stereo not shown) [DC44] | 50 to 100 | 50 to 100
O=C(NCc1ccc(/C=C/C(c2cc(Cl)c(Cl)c(Cl)c2)C(F)(F)F)cc1Br)C1CC1 (stereo not shown) [CC26] | 50 to 100 | 0
O=C(NCc1ccc(/C=C/C(c2cc(Cl)c(Cl)c(Cl)c2)C(F)(F)F)cc1Cl)Nc1ccccn1 (stereo not shown) [CC35] | 0 | 0
O=C(CC(F)(F)F)NCc1ccc(/C=C/C(c2cc(Cl)cc(Cl)c2)C(F)(F)F)cc1Cl (stereo not shown) [CC9] | 50 to 100 | 50 to 100
Cc1cc(/C=C/C(c2cc(Cl)cc(Cl)c2)C(F)(F)F)ccc1C(=O)NN(C)c1ccccc1F (stereo not shown) [AC45] | 50 to 100 | 50 to 100
Cc1cc(/C=C/C(c2cc(Cl)cc(Cl)c2)C(F)(F)F)ccc1C(=O)NCc1cncnc1 (stereo not shown) [AC39, 4-((E)-3-(3,5-dichlorophenyl)-4,4,4-trifluorobut-1-enyl)-2-methyl-N-((pyrimidin-5-yl)methyl)benzamide] | 50 to 100 | 50 to 100
Cc1cc(/C=C/C(c2cc(Cl)c(Cl)c(Cl)c2)C(F)(F)F)ccc1C(=O)NCc1ccc(Cl)nc1 (stereo not shown) [AC22] | 50 to 100 | 50 to 100
O=C(NC1CCCc2cc(/C=C/C(c3cc(Cl)c(Cl)c(Cl)c3)C(F)(F)F)ccc21)C1CC1 (stereo not shown) [BC7] | 50 to 100 | 50 to 100
Cc1cc(/C=C/C(c2cc(Cl)cc(Cl)c2)C(F)(F)F)ccc1C(=O)NCc1nc2ccccc2s1 (stereo not shown) [AC42] | 50 to 100 | 0
CONC(=O)CNC(=O)c1ccc(/C=C/C(c2cc(Cl)c(Cl)c(Cl)c2)C(F)(F)F)cc1Br (stereo not shown) [AC110] | 50 to 100 | 50 to 100
CC(=O)N1CCC(NC(=O)c2ccc(/C=C/C(c3cc(Cl)c(Cl)c(Cl)c3)C(F)(F)F)cc2Br)CC1 (stereo not shown) [AC103, (E)-N-(1-acetylpiperidin-4-yl)-2-bromo-4-(4,4,4-trifluoro-3-(3,4,5-trichlorophenyl)but-1-en-1-yl)benzamide] | 50 to 100 | 50 to 100
O=C(NCc1ccc(/C=C/C(c2cc(Cl)c(Cl)c(Cl)c2)C(F)(F)F)cc1Cl)C1CC1 (stereo not shown) [CC11] | 50 to 100 | 50 to 100
COC(=O)C(=O)NCc1ccc(/C=C/C(c2cc(Cl)c(Cl)c(Cl)c2)C(F)(F)F)cc1Cl (stereo not shown) [CC41, (E)-methyl 2-((2-chloro-4-(4,4,4-trifluoro-3-(3,4,5-trichlorophenyl)but-1-en-1-yl)benzyl)amino)-2-oxoacetate] | 0 | 0
